Assay results published in patent publication US10308643B2, “Heterocyclic compound” (Takeda Pharmaceutical Company Limited, priority 2015, dated 2019).

Columns and labels:
Format in all cases: biochemical
HDAC9 enzyme = target: T1, HDAC9 enzyme (Homo sapiens, UniProt Q9UKV0); assay: HDAC9 Enzyme Inhibitory Assay (HDAC-Glo class IIa); conditions: 1 μM test compound, wells without enzyme = 100% inhibition; for inhibition at 1 µM: read-out: HDAC9 inhibitory rate (%) (1 μM)
T1 construct: transducing full length HDAC9 gene into Sf-9 insect cells; made in house; host or cells: Sf-9 insect cells
T1 sequence (Q9UKV0 whole entry, species assumed): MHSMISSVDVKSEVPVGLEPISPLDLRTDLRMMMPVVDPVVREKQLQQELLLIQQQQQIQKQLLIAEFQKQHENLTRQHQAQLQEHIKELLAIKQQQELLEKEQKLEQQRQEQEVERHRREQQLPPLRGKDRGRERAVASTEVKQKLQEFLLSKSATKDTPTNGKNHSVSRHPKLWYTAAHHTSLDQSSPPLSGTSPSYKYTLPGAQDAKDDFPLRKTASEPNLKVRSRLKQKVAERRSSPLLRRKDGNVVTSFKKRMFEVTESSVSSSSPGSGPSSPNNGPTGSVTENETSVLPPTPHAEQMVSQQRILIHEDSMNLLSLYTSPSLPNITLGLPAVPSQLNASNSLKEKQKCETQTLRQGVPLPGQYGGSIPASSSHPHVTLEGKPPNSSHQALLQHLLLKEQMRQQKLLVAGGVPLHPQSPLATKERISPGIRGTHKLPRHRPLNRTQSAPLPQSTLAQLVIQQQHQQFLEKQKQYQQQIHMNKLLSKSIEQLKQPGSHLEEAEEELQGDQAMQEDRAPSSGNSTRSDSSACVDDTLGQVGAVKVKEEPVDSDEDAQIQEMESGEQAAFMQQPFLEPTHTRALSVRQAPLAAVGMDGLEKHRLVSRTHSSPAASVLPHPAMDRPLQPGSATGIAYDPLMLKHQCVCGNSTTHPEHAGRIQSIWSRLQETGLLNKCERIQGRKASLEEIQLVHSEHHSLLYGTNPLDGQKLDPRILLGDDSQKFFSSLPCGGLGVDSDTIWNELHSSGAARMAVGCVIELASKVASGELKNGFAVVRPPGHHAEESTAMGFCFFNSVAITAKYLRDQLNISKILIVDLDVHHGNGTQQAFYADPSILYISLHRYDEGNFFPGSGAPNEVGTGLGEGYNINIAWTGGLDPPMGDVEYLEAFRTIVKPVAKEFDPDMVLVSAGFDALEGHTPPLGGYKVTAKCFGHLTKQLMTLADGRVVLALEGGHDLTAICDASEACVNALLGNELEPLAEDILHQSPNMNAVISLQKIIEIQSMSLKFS
How it was run: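 Luminescent HDAC-Glo class IIa readout after a 20 min room-temperature reaction; relative inhibition referenced to enzyme-free wells as 100%. Test compound first preincubated 60 min with Sf-9-expressed, Ni-NTA-purified full-length HDAC9 in pH 7.5 Tris buffer containing 135 mM NaCl, 0.6 mM glutathione and 0.01% Tween-20.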

HDAC6 enzyme = target: T2, HDAC6 enzyme (Homo sapiens, UniProt Q9UBN7); assay: HDAC1/6 Enzyme Inhibitory Assay (HDAC-Glo I/II Assay kit), HDAC6; conditions: 1 μM test compound, wells without enzyme = 100% inhibition; for inhibition at 1 µM: read-out: HDAC6 inhibitory rate (%) (1 μM)
T2 construct: transducing full length HDAC1 and HDAC6 genes into Sf-9 insect cells; GST; purchased SignalChem; host or cells: Sf-9 insect cells
T2 sequence (Q9UBN7 1-1215): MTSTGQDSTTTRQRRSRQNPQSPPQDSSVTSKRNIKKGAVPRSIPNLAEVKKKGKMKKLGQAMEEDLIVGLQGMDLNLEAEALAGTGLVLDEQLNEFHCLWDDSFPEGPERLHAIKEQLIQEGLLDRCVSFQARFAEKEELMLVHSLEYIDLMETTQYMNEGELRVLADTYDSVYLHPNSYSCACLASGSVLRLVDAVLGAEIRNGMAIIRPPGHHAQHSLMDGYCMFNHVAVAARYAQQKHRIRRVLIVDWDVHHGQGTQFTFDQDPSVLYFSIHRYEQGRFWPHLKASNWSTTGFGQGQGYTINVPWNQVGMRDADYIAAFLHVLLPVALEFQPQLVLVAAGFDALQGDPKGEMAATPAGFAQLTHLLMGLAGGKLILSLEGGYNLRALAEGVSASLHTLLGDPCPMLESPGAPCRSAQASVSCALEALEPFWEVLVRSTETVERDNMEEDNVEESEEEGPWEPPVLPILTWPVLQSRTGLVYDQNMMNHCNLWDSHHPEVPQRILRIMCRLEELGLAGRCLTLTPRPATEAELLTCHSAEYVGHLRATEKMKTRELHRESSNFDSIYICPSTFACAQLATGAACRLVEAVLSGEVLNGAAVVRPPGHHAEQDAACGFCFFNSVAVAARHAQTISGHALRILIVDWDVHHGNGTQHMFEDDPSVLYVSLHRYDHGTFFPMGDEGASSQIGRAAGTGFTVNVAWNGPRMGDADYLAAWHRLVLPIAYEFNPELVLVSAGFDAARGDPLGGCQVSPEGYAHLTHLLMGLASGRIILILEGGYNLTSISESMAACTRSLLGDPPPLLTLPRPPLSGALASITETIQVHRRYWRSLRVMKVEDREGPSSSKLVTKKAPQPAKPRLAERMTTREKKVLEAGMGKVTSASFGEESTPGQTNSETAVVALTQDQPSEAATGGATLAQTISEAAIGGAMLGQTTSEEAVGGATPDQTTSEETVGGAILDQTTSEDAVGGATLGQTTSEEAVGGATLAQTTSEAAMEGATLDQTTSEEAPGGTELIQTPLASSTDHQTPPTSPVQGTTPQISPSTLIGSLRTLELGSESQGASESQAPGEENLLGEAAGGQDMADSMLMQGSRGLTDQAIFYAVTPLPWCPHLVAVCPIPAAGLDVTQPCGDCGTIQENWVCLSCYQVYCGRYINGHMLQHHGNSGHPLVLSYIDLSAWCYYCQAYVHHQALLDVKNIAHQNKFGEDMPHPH
How it was run: (§1)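 Steps: compound in pH 7.5 Tris buffer plus enzyme (full-length HDAC1 or HDAC6 from Sf-9, GST-purified), 60 min at room temperature; add HDAC-Glo substrate-developer; react 20 min; read luminescence. Relative activity is calculated against enzyme-free wells taken as full inhibition.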

HDAC1 enzyme = target: T3, HDAC1 enzyme (Homo sapiens, UniProt Q13547); assay: HDAC1/6 Enzyme Inhibitory Assay (HDAC-Glo I/II Assay kit), HDAC1; conditions: 1 μM test compound, wells without enzyme = 100% inhibition; for inhibition at 1 µM: read-out: HDAC1 inhibitory rate (%) (1 μM)
T3 construct: transducing full length HDAC1 and HDAC6 genes into Sf-9 insect cells; GST; purchased SignalChem; host or cells: Sf-9 insect cells
T3 sequence (Q13547 whole entry): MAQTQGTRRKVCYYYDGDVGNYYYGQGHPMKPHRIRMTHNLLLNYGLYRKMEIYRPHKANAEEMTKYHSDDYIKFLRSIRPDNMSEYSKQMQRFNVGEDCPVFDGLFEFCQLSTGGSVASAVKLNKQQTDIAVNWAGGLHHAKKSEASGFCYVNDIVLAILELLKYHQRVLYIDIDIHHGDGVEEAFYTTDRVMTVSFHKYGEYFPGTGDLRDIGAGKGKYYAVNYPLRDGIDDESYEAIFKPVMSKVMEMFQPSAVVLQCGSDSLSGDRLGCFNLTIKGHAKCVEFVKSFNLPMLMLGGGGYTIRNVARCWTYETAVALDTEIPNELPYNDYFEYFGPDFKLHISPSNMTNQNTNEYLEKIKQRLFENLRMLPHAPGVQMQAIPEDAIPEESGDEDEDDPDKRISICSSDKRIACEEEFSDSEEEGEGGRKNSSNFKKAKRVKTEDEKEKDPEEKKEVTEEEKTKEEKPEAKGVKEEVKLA
How it was run: as §1

| inhibition at 1 µM (HDAC9 enzyme) [%] | inhibition at 1 µM (HDAC6 enzyme) [%] | inhibition at 1 µM (HDAC1 enzyme) [%] | HDAC9 inhibitory rate (%) (1 μM) (HDAC9 enzyme; 1 µM) | HDAC6 inhibitory rate (%) (1 μM) (HDAC6 enzyme) | HDAC1 inhibitory rate (%) (1 μM) (HDAC1 enzyme) | HDAC9 inhibitory rate (%) (1 μM) (HDAC9 enzyme) | Compound |
| --- | --- | --- | --- | --- | --- | --- | --- |
| 98 | 96 | 87 | – | – | – | – | O=C1c2cc(-c3noc(C(F)(F)F)n3)ccc2CN1[C@@H]1CNC[C@H]1c1ccccc1 (relative stereo) [Example 3, trans-2-(4-phenylpyrrolidin-3-yl)-6-(5-(trifluoromethyl)-1,2,4-oxadiazol-3-yl)isoindolin-1-one] |
| 39 | 92 | 7 | – | – | – | – | O=C1c2cc(-c3noc(C(F)(F)F)n3)ccc2CN1[C@@H]1CCc2ccccc21 [Example 25, 2-((1R)-2,3-dihydro-1H-inden-1-yl)-6-(5-(trifluoromethyl)-1,2,4-oxadiazol-3-yl)isoindolin-1-one] |
| 54 | -3 | -6 | – | – | – | – | N[C@@H]1CCC[C@H]1N1Cc2ccc(-c3noc(C(F)(F)F)n3)cc2C1=O [Example 142, 2-((1R,2R)-2-aminocyclopentyl)-6-(5-(trifluoromethyl)-1,2,4-oxadiazol-3-yl)isoindolin-1-one] |
| 95 | 100 | 70 | – | – | – | – | O=C(C1CC1)N1C[C@@H](N2Cc3ccc(-c4noc(C(F)(F)F)n4)cc3C2=O)[C@H](c2ccccc2)C1 (relative stereo) [Example 11, trans-2-(1-(cyclopropylcarbonyl)-4-phenylpyrrolidin-3-yl)-6-(5-(trifluoromethyl)-1,2,4-oxadiazol-3-yl)isoindolin-1-one] |
| 81 | 77 | 19 | – | – | – | – | CC(=O)N1CC[C@@H](c2ccccc2)[C@H](N2Cc3cc(-c4noc(C(F)(F)F)n4)ccc3C2=O)C1 (relative stereo) [Example 73, trans-2-(1-acetyl-4-phenylpiperidin-3-yl)-5-(5-(trifluoromethyl)-1,2,4-oxadiazol-3-yl)isoindolin-1-one] |

More lines, now with the values behind:

| Compound | inhibition at 1 µM (HDAC9 enzyme) [%] | inhibition at 1 µM (HDAC6 enzyme) [%] | inhibition at 1 µM (HDAC1 enzyme) [%] | HDAC9 inhibitory rate (%) (1 μM) (HDAC9 enzyme; 1 µM) | HDAC6 inhibitory rate (%) (1 μM) (HDAC6 enzyme) | HDAC1 inhibitory rate (%) (1 μM) (HDAC1 enzyme) | HDAC9 inhibitory rate (%) (1 μM) (HDAC9 enzyme) |
| --- | --- | --- | --- | --- | --- | --- | --- |
| CC1(C(=O)N[C@@H]2CCC(F)(F)C[C@H]2N2Cc3ccc(-c4noc(C(F)(F)F)n4)cc3C2=O)COC1 [Example 87, N-((1R,2R)-4,4-difluoro-2-(1-oxo-6-(5-(trifluoromethyl)-1,2,4-oxadiazol-3-yl)-1,3-dihydro-2H-isoindol-2-yl)cyclohexyl)-3-methyloxetane-3-carboxamide] | 45 | 99 | 1 | – | – | – | – |
| CC(=O)N1CC(C)(C(=O)N[C@@H]2CCCC[C@H]2N2Cc3ccc(-c4noc(C(F)(F)F)n4)cc3C2=O)C1 [Example 195, 1-acetyl-3-methyl-N-((1R,2R)-2-(1-oxo-6-(5-(trif1uoromethyl)-1,2,4-oxadiazol-3-yl)-1,3-dihydro-2H-isoindol-2-yl)cyclohexyl)azetidine-3-carboxamide] | 57 | 98 | 1 | – | – | – | – |
| O=C(N[C@@H]1CCCC[C@H]1N1Cc2ccc(-c3noc(C(F)(F)F)n3)cc2C1=O)C1CCOCC1 [Example 37, N-((1R,2R)-2-(1-oxo-6-(5-(trifluoromethyl)-1,2,4-oxadiazol-3-yl)-1,3-dihydro-2H-isoindol-2-yl)cyclohexyl)tetrahydro-2H-pyran-4-carboxamide] | 19 | 96 | 1 | – | – | – | – |
| CC(CO)(CCl)C(=O)N[C@@H]1CCCC[C@H]1N1Cc2ccc(-c3noc(C(F)(F)F)n3)cc2C1=O (relative stereo) [Example 203, 3-chloro-2-(hydroxymethyl)-2-methyl-N-(trans-2-(1-oxo-6-(5-(trifluoromethyl)-1,2,4-oxadiazol-3-yl)-1,3-dihydro-2H-isoindol-2-yl)cyclohexyl)propanamide] | 69 | 100 | 8 | – | – | – | – |
| CC(C)(C)OC(=O)N[C@@H]1COCC[C@H]1N1Cc2ccc(-c3noc(C(F)(F)F)n3)cc2C1=O [Example 81, tert-butyl ((3S,4R)-4-(1-oxo-6-(5-(trifluoromethyl)-1,2,4-oxadiazol-3-yl)-1,3-dihydro-2H-isoindol-2-yl)tetrahydro-2H-pyran-3-yl)carbamate] | 62 | 100 | 16 | – | – | – | – |
| CC1CC1C(=O)N[C@@H]1CCCC[C@H]1N1Cc2ccc(-c3noc(C(F)(F)F)n3)cc2C1=O (stereo partly drawn) [Example 102, 2-methyl-N-((1R,2R)-2-(1-oxo-6-(5-(trifluoromethyl)-1,2,4-oxadiazo-3-yl)-1,3-dihydro-2H-isoindol-2-yl)cyclohexyl) cyclopropanecarboxamide] | 52 | 99 | 7 | – | – | – | – |
| CC(C)(C)OC(=O)N[C@@H]1CCCC[C@@H]1N1Cc2ccc(-c3noc(C(F)(F)F)n3)cc2C1=O (relative stereo) [Example 198, tert-butyl (cis-2-(1-oxo-6-(5-(trifluoromethyl)-1,2,4-oxadiazol-3-yl)-1,3-dihydro-2H-isoindol-2-yl)cyclohexyl)carbamate] | 66 | 95 | 26 | – | – | – | – |
| O=C1c2cc(-c3noc(C(F)(F)F)n3)ccc2CN1[C@@H]1CCCC[C@H]1NC(=O)C1(CO)CC1 [Example 153, 1-(hydroxymethyl)-N-((1R,2R)-2-(1-oxo-6-(5-(trifluoromethyl)-1,2,4-oxadiazol-3-yl)-1,3-dihydro-2H-isoindol-2-yl)cyclohexyl) cyclopropanecarboxamide] | 52 | 100 | 6 | – | – | – | – |
| O=C1CCCN1[C@@H]1CCOC[C@H]1N1Cc2ccc(-c3noc(C(F)(F)F)n3)cc2C1=O [Example 178, 2-((3S,4R)-4-(2-oxopyrrolidin-1-yl)tetrahydro-2H-pyran-3-yl)-6-(5-(trifluoromethyl)-1,2,4-oxadiazol-3-yl)isoindolin-1-one] | – | – | – | 61 | 99 | 8 | – |
| O=C(NC1CC1)N[C@@H]1CCCC[C@H]1N1Cc2ccc(-c3noc(C(F)(F)F)n3)cc2C1=O [Example 154, 1-cyclopropyl-3-((1R,2R)-2-(1-oxo-6-(5-(trifluoromethyl)-1,2,4-oxadiazol-3-yl)-1,3-dihydro-2H-isoindol-2-yl)cyclohexyl)urea] | 54 | 100 | 11 | – | – | – | – |
| O=C(N[C@@H]1CCCC[C@H]1N1Cc2ccc(-c3noc(C(F)(F)F)n3)cc2C1=O)[C@@H]1CC1(F)F [Example 147, (1S)-2,2-difluoro-N-((1R,2R)-2-(1-oxo-6-(5-(trifluoromethyl) -1,2,4-oxadiazol-3-yl)-1,3-dihydro-2H-isoindol-2-yl)cyclohexyl)cyclopropanecarboxamide] | 51 | 99 | 6 | – | – | – | – |
| O=C(N[C@@H]1CCCC[C@H]1N1Cc2ccc(-c3noc(C(F)(F)F)n3)cc2C1=O)C1CCCCCO1 (stereo partly drawn) [Example 133, N-((1R,2R)-2-(1-oxo-6-(5-(trifluoromethyl)-1,2,4-oxadiazol-3-yl)-1,3-dihydro-2H-isoindol-2-yl)cyclohexyl)oxepane-2-carboxamide] | – | – | – | – | 99 | 9 | 38 |
